Test results published in US20210395208A1, “AMORPHOUS COMPOUNDS OF FORMULA (I) AND AMORPHOUS COMPOUNDS OF FORMULA (I) SALTS” (H. Lundeck A/S, priority 2018, published 2021).
Where a name gives a salt, the structure may show the parent alone.

Assays:
Format in all cases: physicochemical
[1] = Recrystallization of amorphous material upon heating above Tg (DSC); conditions: DSC thermogram of the amorphous material, FIG. 2
Protocol: (§1) Melting point and glass transition determined on the base of compound (Ia): Sample of 2-3 mg was packed into Tzero aluminum hermetic pans with a perforated lid and heated 1° C./min to 80° C. (giving the melting point), kept isothermal for 2 min., equilibrated at −50° C., and heated 10° C./min to 110° C. (giving the glass transition of the formed amorphous solid).
Melting point and glass transition of the hydrogen fumarate of compound (Ia): Sample heated 1° C./min to 210° C. (giving the melting point), kept isothermal for 2 min., equilibrated at −50° C., and heated 10° C./min to 230° C. (giving the glass transition of the formed amorphous solid).

[2] = Calculated glass transition temperature, 2/3 of the crystalline melting temperature in Kelvin (Beaman's rule); conditions: crystalline melting points around 60° C. (base) and 203° C. (hydrogen fumarate)
Protocol: (§2) The terms “actual glass transition temperature” and “calculated glass transition temperature” as used herein refers to the measured (actual) and theoretical (calculated) glass transition temperature associated with a specific compound of Formula (I) or compound of Formula (I) salt. The actual glass transition temperature is determined from the DSC thermogram for the amorphous material, which is exemplified in example 1 and depicted in FIG. 2. The calculated glass transition temperature is calculated as ⅔ of the melting temperature (in Kelvin) of the crystalline form. FIG. 1 illustrate DSC thermograms of crystalline forms of compound (Ia), from which the melting temperature can be determined. The calculation procedure for estimation of the glass transition temperature is described in example 1.
The glass transition temperature can be estimated as ⅔ of the melting temperature of the crystalline material (measured in Kelvin). This relationship is known as the “Beaman's rule” and applies to a wide range of both organic, inorganic, simple and polymeric materials. (Beaman, R. G. Journal of Polymer Science, 1952, 9(5): 470-472).
(§3) As stated in the description of the present application, it is generally recognized that the glass transition temperature can be estimated as ⅔ of the melting temperature of the crystalline material (measured in Kelvin). From the DSC thermograms in FIG. 1 (left), it is seen that the crystalline base of compound (Ia) has an endothermic peak around 60° C. corresponding to the melting of the crystals. Based on the melting temperature of the crystalline base of compound (la), the calculated glass transition temperature of the amorphous form of this compound is thus ⅔*(60° C.+273)=222 K or −51° C. […] This means that the actual measured Tg of this amorphous form is around 5° C. and not −51° C. as calculated using the Beaman Rule.
(§4) Similar experiments were performed with the hydrogen fumarate of compound (Ia). Here the calculated Tg was based on the observed endothermic peak around 203° C. corresponding to the melting of the crystal (FIG. 1—right). Consequently, the calculated Tg is ⅔ *(203° C.+273)=317 K or 44° C. The thermogram of the amorphous form is shown in FIG. 2 (right) and depicts a change in heat capacity around 66° C. corresponding to a glass transition. This means that the actual measured Tg of the amorphous hydrogen fumarate of compound (Ia) is around 66° C. and not 44° C. as calculated.

[3] = Actual glass transition temperature (Tg) of the amorphous form by DSC; conditions: amorphous form made by melt quenching in the DSC pan, heated 10° C./min
Protocol: as §2, §3, §4
Different scanning programs are used depending on the purpose of the analysis as given in example 9. In all DSC-experiments, 2-5 mg sample is packed into Tzero aluminum hermetic pans with a perforated lid, and the measurement is performed under 50 mL/min dry nitrogen gas purge.
as §1, with “solid). […]” for “solid).”

[4] = Physical stability of amorphous solids by XRPD on storage at ambient conditions; conditions: ambient conditions (15-35 degrees Celsius, 15-75 percent RH), 96 hours, 1, 4, 9 weeks, 5, 8, 12 months
Protocol: The term “ambient conditions” as used herein refers to conditions with a temperature range of 15-35 degrees Celsius and a relative humidity range of 15-75 percent.
X-Ray powder diffractograms were measured on a PANalytical X′Pert PRO X-Ray Diffractometer using CuKα1 radiation (λ=1.5406 Å). The samples were measured in reflection mode in the 2θ-range 3-40° using an X'celerator detector. (See FIGS. 3, 4 and 5).
The amorphous base and the fumarate salt of compound (Ia) were analyzed using XRPD to determine the physical stability of these solid forms. The presence of a substantially amorphous solid form was confirmed by a diffuse halo XRPD pattern similar to FIG. 3, which is characteristic for a solid amorphous form.
The short-term physical stability of the amorphous solids was analyzed immediately after preparation; the samples were analyzed by XRPD for 96 hours consecutively by alternating measurements every 2 hours. The long-term stability was then assessed by storing the amorphous solids under ambient conditions and analyzing them by XRPD after 1, 4 and 9 weeks as well as 5, 8 and 12 months.

SMILES: [2H]c1c([2H])c([2H])c([C@@H]2C[C@@H](N3CCN(C([2H])([2H])[2H])C(C)(C)C3)c3cc(Cl)ccc32)c([2H])c1[2H] [amorphous base of compound (Ia)]
- recrystallization upon heating above the glass transition [1]: do not recrystallize easily above the glass transitions
- calculated glass transition temperature Tg [2]: −51 °C
- calculated glass transition temperature Tg ([2]; listed as amorphous base): about −51 °C
- actual (measured) glass transition temperature Tg [3]: around 5 °C
- actual (measured) glass transition temperature Tg ([3]; listed as amorphous base): about 4 °C
- physical stability of the amorphous solid (XRPD pattern) ([4]; listed as free base): weak indication of crystallization of the free base after 5 months

SMILES: [2H]c1c([2H])c([2H])c([C@@H]2C[C@@H](N3CCN(C([2H])([2H])[2H])C(C)(C)C3)c3cc(Cl)ccc32)c([2H])c1[2H] [amorphous hydrogen fumarate of compound (Ia)]
- recrystallization upon heating above the glass transition [1]: do not recrystallize easily above the glass transitions
- calculated glass transition temperature Tg [2]: 44 °C
- calculated glass transition temperature Tg ([2]; listed as amorphous hydrogen fumarate salt of compound (Ia)): ~44 °C
- actual (measured) glass transition temperature Tg [3]: around 66 °C
- actual (measured) glass transition temperature Tg ([3]; listed as amorphous hydrogen fumarate salt): 66 °C
- physical stability of the amorphous solid (XRPD pattern) [4]: substantially amorphous solids at all timepoints
